Consider 8 compounds from patent US20260232607A1, “COMPOSITIONS AND METHODS INVOLVING ISOLATED COMPOUNDS” (CuraSen Therapeutics, Inc., priority 2022, published 2026).

One data set addresses T1, β1-AR (Homo sapiens, UniProt P08588).
T1 construct: expressed in transfected cells; host or cells: CHO-K1
In words: cAMP Gs HTRF assay, inhibition of isoproterenol-stimulated cAMP, affinity by Leff-Dougall equation. The class given is cell-based. The settings on record: CHO-K1 cells, approximate EC80 isoproterenol. An excerpt: When cAMP turnover is reduced by blocking phosphodiesterases with IBMX, cAMP accumulation occurs, and this accumulation is detected in the cAMP Gs Homogenous Time Resolved Fluorescence (HTRF) assay. The HTRF assay is a competitive inhibition assay. Endogenous cAMP, produced by stimulated cells, competes with and prevents FRET between acceptor-labeled cAMP and donor-labeled cAMP antibody. Increases in endogenous cAMP therefore cause a reduction in HTRF signal, expressed as a ratio of FRET acceptor fluorescence and FRET donor fluorescence.
cAMP HTRF measurements were performed broadly according to the cAMP Gs dynamic kit protocol (Cisbio/Perkin Elmer, 62AM4PEC). Compounds were prepared at 2× final concentration to accommodate the subsequent addition of cells. […] Test compounds were serially diluted across the plate by nine 5-fold dilutions to generate a 10-point dose-response curve.
384 well plates containing compound were covered and stored at room temperature until resuspended cell addition.
D2-labelled cAMP (Acceptor) and Europium cryptate labelled cAMP antibody (Donor) (Cisbio/Perkin Elmer 62AM4PEC) were dissolved in water following the manufacturer's instructions, aliquoted and stored at −80° C.
CHO-K1 cells expressing exogenous β-ARs were resuspended using methods as described above, were recovered from flasks using PBS […] (Caisson PBL02) and centrifuged at 250×g for 5 minutes in a 50 ml falcon tube. PBS/versene was removed by aspiration and cells were resuspended in a minimal volume of room temperature 1× stimulation buffer+IBMX prior to cell counting. 5 ul cells of correct density (2000 cells/well) were added to compound in assay plates using a Multidrop Combi (Thermofisher). Cells and compounds were covered with a clear plate seal (Axygen PCR-SP) and incubated at 37° C., 5% CO2 for 30 minutes. cAMP accumulation was then stopped by adding 10 μL HTRF detection reagents in lysis buffer using the Multidrop Combi, plates were covered with an aluminum plate seal (Axygen PCR-AS-600) and agitated (Heidolph Titramax 1000, setting 600) for at least 2 hours, to allow competition between D2-cAMP and stimulated cAMP for the donor-labelled cAMP antibody to reach equilibrium.
HTRF was detected using a Tecan Spark plate reader, operated using SparkControl™ software, using the TR fluorescence intensity setting. Both donor and acceptor was excited at 320 nm, detected after 100 μs delay, with 400 μs integration time, and 50 flashes per read. […] To standardize reads across experiments, camera gain was manually set to 120 for donor detection, and 140 for acceptor detection.
(In general: Time-resolved FRET reads energy transfer from a long-lived donor to a nearby acceptor.)

Data set [1] can be described thus: In vivo PK in rats (IV and PO). Particulars: male SD rat. The method, then: The rat pharmacokinetics studies of exemplary compounds NI-C and NI-D were conducted with male SD rats. These rats were typically about 6-8 weeks old, weighing 200 g to 300 g. Animals were fasted overnight and have free access to food 4 hours after dosing. A required volume of vehicle was added to reach the target concentration of the test article and vehicle component to prepare for the dosing. The dosing vehicle was PEG400 or 30% PEG400 in saline for IV, or 0.5% methylcellulose in water for PO. For IV dosing, the animals were administered intravenously via tail vein. For PO dosing, the animals were administered via oral gavage. After dosing, blood sample was collected (~0.2 mL per time point) through jugular vein or heart puncture. Blood of each sample was transferred into plastic micro centrifuge tubes containing EDTA-K2. Collection tubes with blood samples and anticoagulant were inverted several times for proper mixing of the tube contents and then placed on wet ice. The blood samples were centrifuged at 2000 g for 5 minutes at 4° C. to obtain plasma which was stored in a freezer at −75±15° C. prior to analysis. Samples were analyzed using LC-MS/MS. WinNonlin were used for pharmacokinetic calculations.

In data set [2] the target is T2, OATP1A2 (Homo sapiens, UniProt P46721).
T2 sequence (P46721 1-670): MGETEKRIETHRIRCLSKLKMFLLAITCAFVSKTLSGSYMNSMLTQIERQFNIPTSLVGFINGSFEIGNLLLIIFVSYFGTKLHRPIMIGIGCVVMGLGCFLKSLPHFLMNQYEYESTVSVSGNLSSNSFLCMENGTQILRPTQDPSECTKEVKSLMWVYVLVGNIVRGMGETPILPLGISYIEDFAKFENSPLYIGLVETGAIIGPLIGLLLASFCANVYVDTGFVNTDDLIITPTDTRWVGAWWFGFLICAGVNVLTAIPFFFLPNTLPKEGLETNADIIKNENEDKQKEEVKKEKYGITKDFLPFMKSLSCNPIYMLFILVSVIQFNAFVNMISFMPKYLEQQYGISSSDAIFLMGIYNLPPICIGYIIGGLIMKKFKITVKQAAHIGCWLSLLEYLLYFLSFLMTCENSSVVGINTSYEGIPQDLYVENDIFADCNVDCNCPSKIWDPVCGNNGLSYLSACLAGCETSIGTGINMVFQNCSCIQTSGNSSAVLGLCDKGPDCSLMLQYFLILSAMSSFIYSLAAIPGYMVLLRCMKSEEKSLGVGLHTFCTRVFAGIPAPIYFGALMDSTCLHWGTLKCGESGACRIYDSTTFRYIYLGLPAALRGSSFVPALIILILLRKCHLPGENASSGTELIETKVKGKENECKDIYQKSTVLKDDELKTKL
The experiment in a line: Uptake in OATP1A2-transfected cells versus control cells. The settings on record: 2-fold threshold.

A short description of data set [3]: CSF and plasma concentrations in healthy human subjects dosed with Compound 03-5 and nadolol. Particulars: for CSF/Plasma ratio: Day 6; for Concentration in CSF / Concentration in plasma: Day 6, 2 hrs after Compound 03-5 (15 mg), nadolol 20 mg.
For data set [4], the target named is T3, β2-AR (Homo sapiens, UniProt P07550). In words: Radioligand binding. The settings on record: read-out: β2-AR affinity by radioligand binding. An excerpt:
In contrast, NI-C blocks the fraction of peripheral β2-AR receptors bound by Compound 03-5 to 0.02 while maintaining the fraction of central β2-AR receptors bound by Compound 03-5 to 0.21.

The nature of another data set: clinical. Particulars: human, CSF/plasma.
Data set [5] deals with T3, β2-AR. In words: Compound 03-5 β2-AR occupancy calculated with the Gaddum equation from measured plasma and CSF concentrations. The settings on record: alone, no nadolol or isomer competition.
The target in data set [6] is T2, OATP1A2.

Like-named read-outs stand apart in the source and are kept apart here.

T3 sequence (P07550 whole entry): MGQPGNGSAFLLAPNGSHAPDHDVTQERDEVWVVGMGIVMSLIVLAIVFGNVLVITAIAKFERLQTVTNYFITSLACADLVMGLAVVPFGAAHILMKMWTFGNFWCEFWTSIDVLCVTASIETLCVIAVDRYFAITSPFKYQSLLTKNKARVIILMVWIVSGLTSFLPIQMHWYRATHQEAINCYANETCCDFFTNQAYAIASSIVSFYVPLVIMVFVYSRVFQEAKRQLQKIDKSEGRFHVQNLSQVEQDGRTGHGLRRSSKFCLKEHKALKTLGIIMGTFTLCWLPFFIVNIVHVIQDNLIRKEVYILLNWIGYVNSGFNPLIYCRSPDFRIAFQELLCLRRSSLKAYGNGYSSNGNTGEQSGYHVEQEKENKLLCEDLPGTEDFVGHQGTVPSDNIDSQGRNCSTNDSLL
T1 sequence (P08588 whole entry): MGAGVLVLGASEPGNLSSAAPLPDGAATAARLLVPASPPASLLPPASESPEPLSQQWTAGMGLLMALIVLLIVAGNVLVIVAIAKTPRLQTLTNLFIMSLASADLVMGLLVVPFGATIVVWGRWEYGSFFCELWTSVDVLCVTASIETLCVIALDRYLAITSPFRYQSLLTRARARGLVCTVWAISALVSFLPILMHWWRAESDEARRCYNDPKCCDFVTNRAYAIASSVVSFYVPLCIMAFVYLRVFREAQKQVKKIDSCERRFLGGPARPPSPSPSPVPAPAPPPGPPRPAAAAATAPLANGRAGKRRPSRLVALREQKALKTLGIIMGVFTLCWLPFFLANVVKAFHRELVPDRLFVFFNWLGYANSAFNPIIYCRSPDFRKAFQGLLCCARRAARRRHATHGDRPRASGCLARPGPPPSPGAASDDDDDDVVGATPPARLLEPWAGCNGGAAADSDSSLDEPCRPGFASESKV

As usually defined, the pKi is the negative decadic logarithm of the Ki, by convention in mol/L. A lower pKi goes with a high Ki. Regarding `CC(C)(C)NCC(O)COc1cccc2c1CC(O)C(O)C2` (single isomer, unassigned) [NI-A, (RSR)-nadolol], on β1-AR, the Ki amounted to 891 nM and the pKi came out at 6.05 ± 0.10.
On to `CC(C)(C)NCC(O)COc1cccc2c1CC(O)C(O)C2` (single isomer, unassigned) [NI-B, (RRS)-nadolol], for which, at β1-AR, the Ki is 354 nM and the pKi stood at 6.45 ± 0.10.
In general, Cmax refers to the maximum level reached in the sampled fluid or tissue. By MRT is commonly meant the average time that molecules of a dose stay in the body. Broadly, the Tmax is the time at which the peak concentration occurs. Take `CC(C)(C)NCC(O)COc1cccc2c1CC(O)C(O)C2` (single isomer, unassigned) [NI-C, (SRS)-nadolol]: in data set [1] (1 mg/kg iv), the AUCInf was determined as 488 ng·h/mL, the C0 is 1142 ng/mL, the CL worked out at 34.5 mL/min/kg and the T1/2 came to 2.87 h. In data set [1] (1 mg/kg iv), this compound yielded a Vss of 4.74 L/kg. In addition, in data set [1] (5 mg/kg po), the AUCInf was found to be 200 ng·h/mL, the Cmax came to 37.9 ng/mL, the MRT is listed as 4.12 h and the Tmax turned out to be 1.08 h. For the same compound, the Bioavailability in data set [1] (5 mg/kg po vs 1 mg/kg iv) amounted to 8.21%. At β1-AR, this compound had a Ki of 4.6 nM and a pKi of 8.34 ± 0.12.
On to `CC(C)(C)NCC(O)COc1cccc2c1CC(O)C(O)C2` (single isomer, unassigned) [NI-D, (SSR)-nadolol], for which, on β1-AR, the Ki amounted to 2.6 nM and the pKi was 8.58 ± 0.18.
`CC(C)(C)NCC(O)COc1cccc2c1CC(O)C(O)C2` (centres unmarked) [(SRS)-NADOLOL]: the “Substrate for OATP1A2” value on OATP1A2 [2] is listed as “appear to be substrates for OATP1A2”.
Take `CC(C)(C)NCC(O)COc1cccc2c1CC(O)C(O)C2` (centres unmarked) [(SSR)-NADOLOL]: the “Substrate for OATP1A2” value at OATP1A2 [2] is recorded as “does not appear to be a substrate for OATP1A2”.
A word on the Kp: it is the ratio of the level in a tissue or fluid to that in plasma or blood. For the compound `CC(C)(C)NC[C@H](O)c1cccc(C#N)n1` [Compound 03-5], the CSF/Plasma ratio is given as 47% in data set [3] (Average of 4 subjects), 44% in data set [3] (Subject B), 42% in data set [3] (Subject C) and 59% in data set [3] (Subject D). Further, the “Concentration in CSF” value in data set [3] (Average of 4 subjects) turned out to be 34.675 ng/mL; in data set [3] (Subject A), 37 ng/mL; in data set [3] (Subject B), 27.1 ng/mL; in data set [3] (Subject C), 30.3 ng/mL; in data set [3] (Subject D), 44.3 ng/mL. The Concentration in plasma in data set [3] (Average of 4 subjects) amounted to 74.25 ng/mL; in data set [3] (Subject A), 87.4 ng/mL; in data set [3] (Subject B), 61.2 ng/mL; in data set [3] (Subject C), 72.9 ng/mL; in data set [3] (Subject D) it was 75.5 ng/mL. Further, at β2-AR [4], the Ki amounted to 374 nM. The Kp in “clinical” was 0.47; in “clinical” (oral), 0.42. The “Fraction of β2-AR receptors bound by Compound 03-5 in the CSF” value at β2-AR [5] is listed as 0.29. At β2-AR [5], the “Fraction of β2-AR receptors bound by Compound 03-5 in the periphery” value is 0.46.
`CC(C)(C)NCC(O)COc1cccc2c1CC(O)C(O)C2` (centres unmarked) [Nadolol, reference compound] registered a Ki on β1-AR of 5.5 nM. Moreover, at OATP1A2 [6], the “Substrate for OATP1A2” value was “appear to be substrates for OATP1A2”.
